Source: patent US20160097044A1, “Antimicrobial Enzyme Fusions Reduce Resistance and Kill Intracellular Staphylococcus aureus” (The United States of America, as Represented by the …, priority 2014, published 2016)

Assays:
[1] = tested on: S. aureus ALR; assay: Minimum Inhibitory Concentration (MIC) assay; format: cell-based; conditions: S. aureus ALR
Description: (§1) The Minimum Inhibitory Concentrations (MIC) of each protein for multiple S. aureus strains was determined as previously described (Jones et al. 1985. In: Manual of Clinical Microbiology, Eds. Balows et al. American Society of Microbiology, Washington D.C., pp. 972-977) with the following modifications. Enzymes were serially diluted two fold across a 96 well plate, such that after dilution, 50 μl of the enzyme solution in 300 mM NaCl, 50 mM NaH2PO4, 30% glycerol pH 7.5, remained in each well. To each well was added 50 μl of TSB and 100 μl of S. aureus Newman in TSB (diluted to 5×10^6 cells/ml). The plates were incubated 20 h at 37° C. and read with a 96 well plate reader. MIC determination values were reported as the median of ≧4 replicates (Table 1).

[2] = tested on: S. aureus Newbould 305; assay: Minimum Inhibitory Concentration (MIC) assay; format: cell-based; conditions: Mastitis isolate S. aureus Newbould 305
Description: as §1

[3] = tested on: S. aureus Newman; assay: Minimum Inhibitory Concentration (MIC) assay; format: cell-based; conditions: for Minimum Inhibitory Conc. (median μg/ml): S. aureus Newman
Description: as §1

[4] = tested on: N315 (NRS 70); assay: Minimum Inhibitory Concentration (MIC) assay; format: cell-based, S. aureus
Description: as §1

[5] = tested on: NRS 192; assay: Minimum Inhibitory Concentration (MIC) assay; format: cell-based, S. aureus
Description: as §1

[6] = tested on: NRS 193; assay: Minimum Inhibitory Concentration (MIC) assay; format: cell-based, S. aureus
Description: as §1

[7] = tested on: NRS 194; assay: Minimum Inhibitory Concentration (MIC) assay; format: cell-based, S. aureus
Description: as §1

[8] = tested on: NRS 209; assay: Minimum Inhibitory Concentration (MIC) assay; format: cell-based, S. aureus
Description: as §1

[9] = tested on: NRS 271; assay: Minimum Inhibitory Concentration (MIC) assay; format: cell-based, S. aureus
Description: as §1

[10] = tested on: Sanger 252 (NRS 71); assay: Minimum Inhibitory Concentration (MIC) assay; format: cell-based, S. aureus
Description: as §1

[11] = tested on: USA 100 (NRS 382); assay: Minimum Inhibitory Concentration (MIC) assay; format: cell-based, S. aureus
Description: as §1

[12] = tested on: USA 200 (NRS 383); assay: Minimum Inhibitory Concentration (MIC) assay; format: cell-based, S. aureus
Description: as §1

[13] = tested on: USA 300 (NRS 384); assay: Minimum Inhibitory Concentration (MIC) assay; format: cell-based, S. aureus
Description: as §1

[14] = tested on: USA 400 (NRS 123); assay: Minimum Inhibitory Concentration (MIC) assay; format: cell-based, S. aureus
Description: as §1

[15] = tested on: USA 500 (NRS 385); assay: Minimum Inhibitory Concentration (MIC) assay; format: cell-based, S. aureus
Description: as §1

[16] = tested on: USA 600 (NRS 22); assay: Minimum Inhibitory Concentration (MIC) assay; format: cell-based, S. aureus
Description: as §1

[17] = tested on: S. epidermidis MP04; assay: Minimum Inhibitory Concentration (MIC) assay; format: cell-based, Staphylococcus epidermidis; conditions: Mastitis isolate S. epidermidis MP04
[18] = tested on: S. simulans MP03; assay: Minimum Inhibitory Concentration (MIC) assay; format: cell-based, Staphylococcus simulans; conditions: Mastitis isolate S. simulans MP03
[19] = tested on: S. xylosus MP05; assay: Minimum Inhibitory Concentration (MIC) assay; format: cell-based, Staphylococcus xylosus; conditions: Mastitis isolate S. xylosus MP05
[20] = tested on: S. aureus strain Newman; format: cell-based; conditions: tenth round compared to first exposure
Description: For the MIC repeated exposure method, MIC determinations were performed with S. aureus strain Newman. 100 μl of S. aureus strain Newman culture that survived at ½ the MIC (the first well with visible growth) for each round was inoculated into 5 ml TSB and cultivated to mid-log phase growth. This culture was used as the inoculum for the next round of MIC exposure (overnight growth), and the cycle was repeated for 10 rounds.
Development of resistance to the triple-acting fusion enzymes was tested on S. aureus strain Newman and compared to both parental enzymes applied individually or simultaneously. […] Survivors of the ten round exposure to peptidoglycan hydrolase were passaged five times in medium with no peptidoglycan hydrolase added. […] We compared our triple-acting fusions to small molecule antibiotics in similar assays.

[21] = tested on: S. aureus SA113 biofilms; assay: Static biofilm reduction model; format: cell-based; conditions: 1 h treatment, compared to buffer treated biofilms
Description: S. aureus SA113 biofilms were treated for 1 h with 100 μl of each enzyme individually or as equimolar mixtures of LysK and lysostaphin (white bars) in 300 mM NaCl, 50 mM NaH2PO4, 30% glycerol. Constructs are named as in FIG. 1a. Results are reported as the percentage reduction in biofilm compared to buffer treated biofilms. Data presented represents 4 replicates. Values represent means±[…]. Asterisks indicate significant differences (single factor ANOVA with t-test post hoc analysis Sidák correction) as compared to LysK (K) at that concentration. Adjusted alpha p<0.026. Peptidoglycan hydrolase constructs: lysostaphin (L), LysK (K), triple fusion K-L, and triple fusion (L-K), as named in FIG. 1a.
In the static biofilm reduction model, biofilms were produced as previously described (Gross et al. 2001. Infect. Immun. 69:3423-3426) with the following modifications. S. aureus strains were grown overnight in 5 ml TSB supplemented with 0.25% D(+)-glucose without shaking at 37° C. The culture was diluted 1/200 in fresh culture medium, and 200 μl was added to each well of a 96 well microtiter plate and incubated without shaking for 24 h at 37° C. Biofilms in the wells were washed twice with 200 μl SLB, treated with […] peptidoglycan hydrolase (Lysostaphin, LysK and the triple fusion proteins K-L and L-K) in SLB at concentrations indicated (FIG. 4) for 1 h at room temperature, and washed twice with 100 μl SLB. Adherent bacteria were fixed with 200 μl 95% ethanol-5% glacial acetic acid for 20 min, washed once with water, and stained with 100 μl 0.4% crystal violet for 15 min at room temperature. Excess stain was removed with 3 water washes. Bound stain was resolubilized in 33% acetic acid, and 20 μl was transferred to a 96 well plate containing 180 μl water. The OD590nm was determined in a Spectra Max plate reader. Percent reduction represents the difference in absorbance between biofilms exposed to buffer only and experimental wells that were exposed to the peptidoglycan hydrolases.
Static biofilms were created with S. aureus strain SA113 in 96 well dishes and treated for one hour with 100 μl of the indicated concentrations of each enzyme individually or as an equimolar mixture of LysK and lysostaphin.

[22] = first exposure of the resistance development experiment, FIG. 1b
[23] = first exposure, molar concentration in brackets

Row | Molecule | Minimum Inhibitory Conc. (median μg/ml) [1] | Minimum Inhibitory Conc. (median μg/ml) [2] | Minimum Inhibitory Conc. (median μg/ml) [3] | First exposure MIC [3, 22] | First exposure MIC [3, 23] | Minimum Inhibitory Conc. (median μg/ml) [4] | Minimum Inhibitory Conc. (median μg/ml) [5] | Minimum Inhibitory Conc. (median μg/ml) [6] | Minimum Inhibitory Conc. (median μg/ml) [7] | Minimum Inhibitory Conc. (median μg/ml) [8] | Minimum Inhibitory Conc. (median μg/ml) [9] | Minimum Inhibitory Conc. (median μg/ml) [10] | Minimum Inhibitory Conc. (median μg/ml) [11] | Minimum Inhibitory Conc. (median μg/ml) [12] | Minimum Inhibitory Conc. (median μg/ml) [13] | Minimum Inhibitory Conc. (median μg/ml) [14] | Minimum Inhibitory Conc. (median μg/ml) [15] | Minimum Inhibitory Conc. (median μg/ml) [16] | Minimum Inhibitory Conc. (median μg/ml) [17] | Minimum Inhibitory Conc. (median μg/ml) [18] | other results
1 | L: 247 amino acid mature (secreted) lysostaphin, staphylolytic bacteriocin, C-terminal His6 tag; SEQ ID NO:1 [reference compound] | 0.77 µg/mL | 12 µg/mL | 0.77 µg/mL | 0.77 µg/mL | 0.027 µM | 0.68 µg/mL | 1.2 µg/mL | 1.2 µg/mL | 1.2 µg/mL | 0.97 µg/mL | 0.58 µg/mL | 0.58 µg/mL | 1.2 µg/mL | 1.2 µg/mL | 1.2 µg/mL | 1.2 µg/mL | 1.2 µg/mL | 1.2 µg/mL | 6.2 µg/mL | 1.5 µg/mL | Minimum Inhibitory Conc. (median μg/ml) [19]: 0.39 µg/mL; increase in MIC after 10 rounds of sub-lethal exposure [20]: 585 fold; static biofilm reduction (in words) [21]: effectively reduced staphylococcal biofilms
2 | K: 495 amino-acid staphylococcal phage K endolysin LysK, C-terminal His6 tag; SEQ ID NO:3 (protein, C-terminal His6 tag; Phage K) MAKTQAEINKRLDAYAKGTVDSPYRVKKATSYDPSFGVMEAGAIDADGYYHAQCQDLITDYVLWLTDNKVRTWGNAKDQIKQSYGTGFKIHENKPSTVPKKGWIAVFTSGSYEQWGHIGIVYDGGNTSTFTILEQNWNGYANKKPTKRVDNYYGLTHFIEIPVKAGTTVKKETAKKSASKTPAPKKKATLKVSKNHINYTMDKRGKKPEGMVIHNDAGRSSGQQYENSLANAGYARYANGIAHYYGSEGYVWEAIDAKNQIAWHTGDGTGANSGNFRFAGIEVCQSMSASDAQFLKNEQAVFQFTAEKFKEWGLTPNRKTVRLHMEFVPTACPHRSMVLHTGFNPVTQGRPSQAIMNKLKDYFIKQIKNYMDKGTSSSTVVKDGKTSSASTPATRPVTGSWKKNQYGTWYKPENATFVNGNQPIVTRIGSPFLNAPVGGNLPAGATIVYDEVCIQAGHIWIGYNAYNGNRVYCPVRTCQGVPPNQIPGVAWGVFKLEHHHHHH | 34 µg/mL | 34 µg/mL | 47 µg/mL | 47 µg/mL | 0.84 µM | 37 µg/mL | 80 µg/mL | 37 µg/mL | 69 µg/mL | 40 µg/mL | 44 µg/mL | 29 µg/mL | 96 µg/mL | 34 µg/mL | 75 µg/mL | 75 µg/mL | 67 µg/mL | 75 µg/mL | 8.4 µg/mL | 20 µg/mL | Minimum Inhibitory Conc. (median μg/ml) [19]: 8.4 µg/mL; increase in MIC after 10 rounds of sub-lethal exposure [20]: 42 fold; static biofilm reduction (in words) [21]: effectively reduced staphylococcal biofilms
